The source made the active and inactive calls. The rule behind the calls is not given here.
Assays:
CHP-134 [1] = assay: Cytotoxicity against human CHP-134 cells assessed as lethal concentration measured after 24 hrs in presence of bortezomib by cell titer glo assay; type: functional; details: read-out: LC50 (the source's name)
IMR-32 [2] = assay: Cytotoxicity against human IMR-32 cells assessed as lethal concentration measured after 24 hrs in presence of bortezomib by cell titer glo assay; type: functional; details: read-out: LC50 (the source's name)
[3] = target: Spermine oxidase (Homo sapiens) (UniProt Q9NWM0); assay: Inhibition of SMOX (unknown origin) at 50 uM using spermine as substrate preincubated for 1 hr followed by substrate addition and measured after 20 mins by luminometer analysis relative to control; details: time 80.0 min
IMR-32 [4] = assay: Upregulation of LSD1 expression level in human IMR-32 cells by DAPI staining based analysis; type: functional, cell-based
CHP-134 [5] = assay: Cytotoxicity against human CHP-134 cells assessed lethal concentration measured after 72 hrs by cell titer glo assay; type: functional; details: read-out: LC50 (the source's name)
IMR-32 [6] = assay: Cytotoxicity against human IMR-32 cells assessed lethal concentration measured after 72 hrs by cell titer glo assay; type: functional; details: read-out: LC50 (the source's name)
CHP-134 [7] = assay: Cytotoxicity against human CHP-134 cells measured after 24 hrs in presence of bortezomib by cell titer glo assay; type: functional, cell-based
CHP-134 [8] = assay: Cytotoxicity against human CHP-134 cells assessed as lethal concentration measured after 24 hrs by cell titer glo assay; type: functional; details: read-out: LC50 (the source's name)
IMR-32 [9] = assay: Cytotoxicity against human IMR-32 cells assessed as lethal concentration measured after 24 hrs by cell titer glo assay; type: functional; details: read-out: LC50 (the source's name)
IMR-32 [10] = assay: Cytotoxicity against human IMR-32 cells assessed as combination index measured after 24 hrs by cell titer glo assay; type: functional
[11] = target: T1, MAO-A (Amine oxidase [flavin-containing] A) (Homo sapiens, UniProt P21397); assay: Inhibition of recombinant MAO-A (unknown origin) at 1 uM using luciferin as substrate preincubated for 1 hr followed by substrate addition measured after 20 min by microplate reader analysis relative to control; details: probe luciferin, time 80 min
T1 sequence (P21397 whole entry): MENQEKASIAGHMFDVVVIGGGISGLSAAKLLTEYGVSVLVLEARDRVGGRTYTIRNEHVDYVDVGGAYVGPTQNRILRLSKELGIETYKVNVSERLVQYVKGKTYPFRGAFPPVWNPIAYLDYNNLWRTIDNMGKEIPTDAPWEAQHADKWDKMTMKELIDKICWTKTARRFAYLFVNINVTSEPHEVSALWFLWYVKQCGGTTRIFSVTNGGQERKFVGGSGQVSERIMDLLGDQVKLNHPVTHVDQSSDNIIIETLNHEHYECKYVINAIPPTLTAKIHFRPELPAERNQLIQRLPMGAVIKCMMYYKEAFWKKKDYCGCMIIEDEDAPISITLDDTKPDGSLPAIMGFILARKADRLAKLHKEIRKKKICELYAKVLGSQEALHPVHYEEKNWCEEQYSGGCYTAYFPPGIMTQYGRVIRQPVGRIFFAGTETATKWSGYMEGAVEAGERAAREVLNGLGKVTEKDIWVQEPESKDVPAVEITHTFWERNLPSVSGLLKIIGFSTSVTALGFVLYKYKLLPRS

Spermine oxidase (Homo sapiens), sequence (Q9NWM0 whole entry): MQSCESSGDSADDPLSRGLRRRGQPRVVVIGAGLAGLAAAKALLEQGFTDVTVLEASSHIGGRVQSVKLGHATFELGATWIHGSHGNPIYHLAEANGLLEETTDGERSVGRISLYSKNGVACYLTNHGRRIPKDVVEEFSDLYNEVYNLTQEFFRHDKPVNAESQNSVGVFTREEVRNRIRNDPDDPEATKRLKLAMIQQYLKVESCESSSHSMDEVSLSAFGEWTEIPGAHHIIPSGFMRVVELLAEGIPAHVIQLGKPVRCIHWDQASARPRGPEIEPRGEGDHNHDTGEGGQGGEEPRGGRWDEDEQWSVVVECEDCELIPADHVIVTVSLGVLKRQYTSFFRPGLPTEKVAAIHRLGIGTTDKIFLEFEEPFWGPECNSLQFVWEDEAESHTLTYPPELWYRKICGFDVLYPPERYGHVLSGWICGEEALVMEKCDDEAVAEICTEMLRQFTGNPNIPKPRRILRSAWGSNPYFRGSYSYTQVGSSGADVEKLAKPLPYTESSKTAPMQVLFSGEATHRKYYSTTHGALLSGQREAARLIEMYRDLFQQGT

**Q.** With `COc1ccc(C2=C(c3ccc(C#N)c(F)c3)N=C(N3CCC(N)CC3)N(C)C2)cc1F` as the molecule, how does the CC50 (CHP-134 [1]) read?
**A.** 16 nM

**Q.** And the CC50 (IMR-32 [2])?
**A.** 8.4 nM

**Q.** How did the inhibition [3] turn out when `O=S(=O)(Nc1ccc(Br)cc1-c1nnn[nH]1)c1ccc(-c2ccc(Cl)cc2)cc1` was run?
**A.** 12%

**Q.** And the Activity (IMR-32 [4])?
**A.** Active

**Q.** What about the CC50 (CHP-134 [5]) of the same molecule?
**A.** 11600 nM

**Q.** What about the CC50 (IMR-32 [6]) of the same molecule?
**A.** 3100 nM

**Q.** And the Activity (CHP-134 [7])?
**A.** Active

**Q.** And the CC50 (CHP-134 [1])?
**A.** 60 nM

**Q.** What about the CC50 (IMR-32 [2]) of the same molecule?
**A.** 7 nM

**Q.** Which results are given for `CC(C)C[C@H](NC(=O)[C@H](Cc1ccccc1)NC(=O)c1cnccn1)B(O)O` [BORTEZOMIB]?
**A.** CC50 (CHP-134 [8]): 106 nM; CC50 (IMR-32 [9]): 19 nM; CI (IMR-32 [10]): 0.37

**Q.** With `C#CCN(C)CCCOc1ccc(Cl)cc1Cl` [CLORGILINE] as the molecule, how does the inhibition at 20 min, 1 µM [11] read?
**A.** 92%

From ChEMBL document CHEMBL5247583, “Synthesis and evaluation of small molecule inhibitors of LSD1 for use against MYCN-expressing neuroblastoma” (Eur J Med Chem, 2022)
